Reference: patent EP4678638A1, “NEW E3 UBIQUITIN LIGASE LIGAND, PROTEIN DEGRADATION AGENT AND USE THEREOF” (priority 2023, dated 2024)
Where two headings read alike, the source gives them in different places.

Assays:
MGC-803 = assay: CCK-8 proliferation, MGC-803 (heads: MGC80-3, MGC803); type: cell-based, Human; conditions: Homo sapiens, MGC-803
Protocol: (§1) The tumor cells used herein were cultured in a cell culture medium listed in table A1 at 37°C in an incubator with 5% CO2. Prior to experimentation, all cell lines used were correctly identified by STR profiling, and tested negative for mycoplasma contamination using a mycoplasma detection kit through routine screenings. Table A1. Tumor cells and cell culture medium used in the present disclosure
(§2) IC50 values of the compounds of the present disclosure (including the compounds in Table 1, and compounds of examples) were measured using the Meilun Cell Counting Kit-8 kit from Dalian Meilun Biotech Co., Ltd. Assay details are as follows: tumor cells were seeded in a 96-well plate at a density listed in Table A2. After 24h, 100 µL of the inoculated cells were treated with 0.5µL of the compounds of the present disclosure (including the compounds in Tables 1 and 2, and compounds of examples) at 10 different successively decreasing concentrations (starting at the highest concentration of 10µM; 5-fold serial dilutions). After the cells were treated with the compounds of the present disclosure for a period of time, the cell viability detection reagent was added to the culture medium for cell viability assessment according to the instructions provided with the CCK-8 kit. […] The growth inhibition of the compounds of the present disclosure on cells was plotted by Prism Graphpad software, and the IC50 values of the compounds of the present disclosure were calculated therefrom. […] Seeding protocol and treatment time for tumor cells

IRAK4 = biological target: T1, IRAK4 (Homo sapiens, UniProt Q9NWZ3); assay: Western blot degradation of IRAK4 (hPBMC); type: cell-based; conditions: Table D1
T1 construct: evaluate the effects of the compounds of the present disclosure on the expression of target proteins in cells; endogenous in cells; host or cells: hPBMC
T1 sequence (Q9NWZ3 1-460): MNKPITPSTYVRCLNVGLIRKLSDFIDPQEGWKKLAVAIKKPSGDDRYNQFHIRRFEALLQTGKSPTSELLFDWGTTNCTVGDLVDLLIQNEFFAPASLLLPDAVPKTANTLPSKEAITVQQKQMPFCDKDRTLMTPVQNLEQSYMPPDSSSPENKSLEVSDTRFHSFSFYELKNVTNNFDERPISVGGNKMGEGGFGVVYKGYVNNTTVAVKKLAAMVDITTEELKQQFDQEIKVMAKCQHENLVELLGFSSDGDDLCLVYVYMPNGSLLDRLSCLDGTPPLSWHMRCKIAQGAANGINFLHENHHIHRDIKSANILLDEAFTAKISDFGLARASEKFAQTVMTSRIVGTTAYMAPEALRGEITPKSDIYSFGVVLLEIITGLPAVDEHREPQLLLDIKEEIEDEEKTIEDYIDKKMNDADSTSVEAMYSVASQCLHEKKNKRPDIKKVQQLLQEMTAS
Outline: (§3)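 Degradation is assessed by immunoblotting lysates of treated cells. Target bands are quantified by grayscale and normalised to an internal control, so degradation rate equals 100% minus % remaining.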

MM.1S = assay: CCK-8 proliferation, MM.1S; type: cell-based; conditions: Homo sapiens, MM1.S; Table B10, compounds designed based on the IRAK4 inhibitors; MM.1S cells; read-out: Inhibitory activity (IC50, nM) on tumor cell proliferation, MM.1S
Outline: (§4)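 CCK-8 viability readout; IC50 from growth-inhibition curve fitting. Cells plated, dosed 24h later with a 10-point series, top 10µM, 5-fold steps. Culture at 37°C, 5% CO2.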

Jurkat = assay: CCK-8 proliferation, Jurkat; type: cell-based, Human; conditions: Homo sapiens; Table B10, compounds designed based on the IRAK4 inhibitors; Jurkat cells; read-out: Inhibitory activity (IC50, nM) on tumor cell proliferation, Jurkat
Outline: as §4

SR = assay: CCK-8 proliferation, SR; type: cell-based, Human; conditions: Homo sapiens; Table B10, compounds designed based on the IRAK4 inhibitors; SR cells; read-out: Inhibitory activity (IC50, nM) on tumor cell proliferation, SR
Outline: as §4

[1] = system: H1975-1µM Osimertinib cells; assay: CCK-8 proliferation, osimertinib-resistant H1975 cells; type: cell-based, Human; conditions: Homo sapiens, NCI-H1975; CCK-8; osimertinib-resistant H1975 cells obtained by treating H1975 cells with 1 µM Osimertinib for 3 months; read-out: Inhibitory activity (IC50) on tumor cell proliferation, H1975-1µm Osimertinib
Protocol: as §1, §2

H1975 = assay: CCK-8 proliferation, NCI-H1975 (H1975); type: cell-based, Human; conditions: Homo sapiens, NCI-H1975; CCK-8; 96 hours; read-out: Inhibitory activity (IC50) on tumor cell proliferation, H1975
Outline: as §4

EGFR = assay: Western blot degradation of EGFR (H1975 Cell); type: cell-based, Human; conditions: Table D2
Outline: as §3

SW620 = assay: CCK-8 proliferation, SW620; type: cell-based; conditions: Homo sapiens, SW-620; CCK-8; 96 hours; read-out: Inhibitory activity (IC50) on tumor cell proliferation, SW620
Protocol: as §1, §2

[2] = Table B10, compounds designed based on the IRAK4 inhibitors, MGC803 cells, read-out: Inhibitory activity (IC50, nM) on tumor cell proliferation, MGC803

Row | SMILES | IC50 (MGC-803; [2]) [nM] | IC50 [1] [nM] | IC50 (H1975) [nM] | Degradation of substrate protein EGFR (substrate protein remaining %) (EGFR) | further results
1 | O=C1CCN(c2cccc(CN3CCC(N4CCN(c5ccc6c(c5)nc(NC(=O)c5cccc(C(F)(F)F)c5)n6[C@H]5CC[C@@H](CO)CC5)CC4)CC3)c2)C(=O)N1 [GT-05022, N-(5-(4-(1-(3-(2,4-dioxotetrahydropyrimidin-1(2H)-yl)benzyl)piperidin-4-yl)piperazin-1-yl)-1-((1s,4s)-4-(hydroxymethyl)cyclohexyl) -1H-benzo[d]imidazol-2-yl)-3-(trifluoromethyl)benzamide] | 500 to 1000 |  |  |  | Degradation of substrate protein IRAK4 (substrate protein remaining %) (IRAK4): A (A is defined as 0% ≤ substrate protein remaining % ≤ 80%); IC50 (MM.1S): 500 to 1000 nM; IC50 (Jurkat): 500 to 1000 nM; IC50 (SR): 500 to 1000 nM
2 | COC1CCN(c2nccc(Nc3cc4c(cn3)c(N3CCN(Cc5ccc(N6CCC(=O)NC6=O)cc5)CC3)nn4C(C)C)n2)CC1 [GT-06037, 1-(4-((4-(1-isopropyl-6-((2-(4-methoxypiperidin-1-yl)pyrimidin-4-yl)amino)-1H-pyrazolo[4,3-c]pyridin-3-yl)piperazin-1-yl)methyl)phenyl)dihydropyr imidine-2,4(1H,3H)-dione] |  | 1 to 10 |  |  | 
3 | O=C1CCN(c2ccc(CN3C[C@H]4C[C@@H]3CN4c3ccc(-c4cc(F)c5c(c4)C(=O)N(C(C(=O)Nc4nccs4)c4ncn6c4CCC6)C5)cc3)nc2)C(=O)N1 (stereo partly drawn) [GT-06190, 2-(6,7-dihydro-5H-pyrrolo[1,2-c]imidazol-1-yl)-2-(6-(4-((1R,4R)-5-((5-(2,4-dioxotetrahydropyrimidin-1(2H)-yl)pyridin-2-yl)methyl)-2,5-diazabicyclo[2.2.1]heptan-2-yl)phenyl)-4-fluoro-1-oxoisoindolin-2-yl)-N-(thiazol-2-yl)acetamide] |  | 100 to 500 | 1 to 10 | A (A is defined as 0% ≤ substrate protein remaining % ≤ 80%) | 
4 | COc1cc2nn(C3CCN(Cc4ccc(C5CCC(=O)NC5=O)c(F)c4)CC3)cc2cc1NC(=O)c1cccc(C(F)(F)F)n1 (stereo not drawn) [GT-04762, N-(2-(1-(4-(2,6-dioxopiperidin-3-yl)-3-fluorobenzyl)piperidin-4-yl)-6-methoxy-2H-indazol-5-yl)-6-(trifluoromethyl)picolinamide] | 500 to 1000 |  |  |  | Degradation of substrate protein IRAK4 (substrate protein remaining %) (IRAK4): A (A is defined as 0% ≤ substrate protein remaining % ≤ 80%)
5 | CCC(=C(c1ccc(O)cc1)c1ccc(N2CCN(Cc3ccc(C4CCC(=O)NC4=O)c(F)c3)CC2)cc1)c1ccc(O)cc1 (stereo not drawn) [GT-04150, 3-(4-((4-(4-(1,2-bis(4-hydroxyphenyl)but-1-en-1-yl)phenyl)piperazin-1-yl)methyl)-2-fluorophenyl)piperidine-2,6-dione] |  |  |  |  | IC50 (MGC-803; CCK-8, 72 hours, read-out: Inhibitory activity (IC50) on tumor cell proliferation, MGC80-3): > 10000 nM; IC50 (SW620): < 1 nM
6 | CC(C)n1nc(N2CCC(N3CCN(Cc4ccc(C5CCC(=O)NC5=O)cc4)CC3)CC2)c2cnc(Nc3ccnc(-c4cnn(S(=O)(=O)C5CC5)c4)n3)cc21 (stereo not drawn) [GT-06078, 3-(4-((4-(1-(6-((2-(1-(cyclopropylsulfonyl)-1H-pyrazol-4-yl)pyrimidin-4-yl)amino)-1-isopropyl-1H-pyrazolo[4,3-c]pyridin-3-yl)piperidin-4-yl)piperazin-1-yl)methyl)phenyl)piperidine-2,6-dione] |  | 100 to 500 |  | A (A is defined as 0% ≤ substrate protein remaining % ≤ 80%) | 
7 | O=C1CCN(c2ccc(CN3CCC(N4CCN(c5ccc6c(c5)nc(NC(=O)c5cccc(C(F)(F)F)c5)n6[C@H]5CC[C@@H](CO)CC5)CC4)CC3)cc2)C(=O)N1 [GT-05021, N-(5-(4-(1-(4-(2,4-dioxotetrahydropyrimidin-1(2H)-yl)benzyl)piperidin-4-yl)piperazin-1-yl)-1-((1s,4s)-4-(hydroxymethyl)cyclohexyl) -1H-benzo[d]imidazol-2-yl)-3-(trifluoromethyl)benzamide] | 500 to 1000 |  |  |  | IC50 (MM.1S): 500 to 1000 nM; IC50 (Jurkat): 500 to 1000 nM
8 | O=C1CCC(Nc2cccc(CN3CCN(c4ccc(-c5cc(F)c6c(c5)C(=O)N(C(C(=O)Nc5nccs5)c5ncn7c5CCC7)C6)cc4)CC3)c2)C(=O)N1 (stereo not drawn) [GT-06188, 2-(6,7-dihydro-5H-pyrrolo[1,2-c]imidazol-1-yl)-2-(6-(4-(4-(3-((2,6-dioxopiperidin-3-yl)amino)benzyl)piperazin-1-yl)phenyl)-4-fluoro-1-oxoisoindolin-2-yl)-N-(thiazol-2-yl)acetamide] |  | < 1 | 1 to 10 |  | 
9 | O=C1CCN(c2ccc(CN3CCC(N4CCN(c5ccc6c(c5)nc(NC(=O)c5cccc(C(F)(F)F)c5)n6[C@H]5CC[C@@H](CO)CC5)CC4)CC3)nc2)C(=O)N1 [GT-05024, N-(5-(4-(1-((5-(2,4-dioxotetrahydropyrimidin-1(2H)-yl)pyridin-2-yl)methyl)piperidin-4-yl)piperazin-1-yl)-1-((1s,4s)-4-(hydroxymethyl)cyclohexyl) -1H-benzo[d]imidazol-2-yl)-3-(trifluoromethyl)benzamide] | 500 to 1000 |  |  |  | IC50 (MM.1S): 500 to 1000 nM; IC50 (Jurkat): 500 to 1000 nM; IC50 (SR): 500 to 1000 nM
10 | CN(Cc1cccc(NC2CCC(=O)NC2=O)c1)C1CCN(c2ccc(-c3cc(F)c4c(c3)C(=O)N(C(C(=O)Nc3nccs3)c3ncn5c3CCC5)C4)cc2)CC1 (stereo not drawn) [GT-05284, 2-(6,7-dihydro-5H-pyrrolo[1,2-c]imidazol-1-yl)-2-(6-(4-(4-((3-((2,6-dioxopiperidin-3-yl)amino)benzyl)(methyl)amino)piperidin-1-yl)phenyl)-4-fluoro-1-oxoisoindolin-2-yl)-N-(thiazol-2-yl)acetamide] |  | 500 to 1000 | 1 to 10 | A (A is defined as 0% ≤ substrate protein remaining % ≤ 80%) | 
11 | O=C1CCC(Nc2cccc(CN3CCN(C4CCN(c5ccc(-c6cc(F)c7c(c6)C(=O)N(C(C(=O)Nc6nccs6)c6ncn8c6CCC8)C7)cc5)CC4)CC3)c2)C(=O)N1 (stereo not drawn) [GT-06247, 2-(6,7-dihydro-5H-pyrrolo[1,2-c]imidazol-1-yl)-2-(6-(4-(4-(4-(3-((2,6-dioxopiperidin-3-yl)amino)benzyl)piperazin-1-yl)piperidin-1-yl)phenyl)-4-fluoro-1-oxoisoindolin-2-yl)-N-(thiazol-2-yl)acetamide] |  | 50 to 100 | 10 to 50 | A (A is defined as 0% ≤ substrate protein remaining % ≤ 80%) | 
12 | O=C1CCN(c2ccc(CN3CCN(C4CCN(c5ccc(-c6cc(F)c7c(c6)C(=O)N(C(C(=O)Nc6nccs6)c6ncn8c6CCC8)C7)cc5)CC4(F)F)CC3)cn2)C(=O)N1 (stereo not drawn) [GT-06320, 2-(6,7-dihydro-5H-pyrrolo[1,2-c]imidazol-1-yl)-2-(6-(4-(4-(4-((6-(2,4-dioxotetrahydropyrimidin-1(2H)-yl)pyridin-3-yl)methyl)piperazin-1-yl)-3,3-difluoropiperidin-1-yl)phenyl)-4-fluoro-1-oxoisoindolin-2-yl)-N-(thiazol-2-yl)acetamide] |  | 500 to 1000 | 1 to 10 | A (A is defined as 0% ≤ substrate protein remaining % ≤ 80%) | 
